# From article PMC8292404 (British Journal of Cancer, 2021)
# Like-named read-outs stand apart in the source and are kept apart here.
# How the values were obtained:
# aHCC with MET alteration = tested on: aHCC with MET alteration; set-up: method as in PMID 31853265; details: cited from earlier work
# [1] = Phase 1b: pharmacokinetics at Cycle 1, Day 15; details: human, in vivo
# Method: (§1) Additional patients were enrolled at the RP2D.
# (§2) The primary endpoint in Phase 1b was incidence of dose-limiting toxicities (DLTs) during Cycle 1. Details of DLTs are defined in Supplementary Table 3. Pharmacokinetics (PK) endpoints, including Cmax, and area under the concentration–time curve over the dosing interval at steady state (AUCτ,ss), were evaluated at Cycle 1, Day 15 as a secondary endpoint in Phase 1b. Selected efficacy measures were evaluated as secondary endpoints in Phase 1b.
# (§3) Continuous variables, including PK data, were summarised using descriptive statistics; qualitative variables were summarised by means of counts and percentages.
# [2] = moderate (Child–Pugh B) hepatic impairment relative to control patients; cited from earlier work
# [3] = tested on: sorafenib pretreated advanced hepatocellular carcinoma (aHCC); experiment: Phase 1b: tumour response and survival (RECIST v1.1, investigator); type: in vivo, human; details: for Best overall response CR / Best overall response Not evaluable / Best overall response PD / Best overall response PR / Best overall response SD: investigator RECIST v1.1
# Source text: This was an open-label, multicentre, integrated, Phase 1b/2 trial conducted across Europe and the US in patients with aHCC who had failed sorafenib treatment.
# (§4) In both study phases, eligible patients were ≥18 years old with aHCC, Child–Pugh Class A liver function score, Eastern Cooperative Oncology Group performance status 0 or 1, and measurable disease defined by Response Evaluation Criteria In Solid Tumors (RECIST) v1.1. […] Exclusion criteria included any prior systemic anti-cancer treatment for aHCC (besides sorafenib) and presence of symptomatic or untreated brain metastases. Full inclusion and exclusion criteria are shown in Supplementary Table 1.
# In Phase 2, patients were required to have MET overexpression, based on assessment of a tumour biopsy sample collected after sorafenib discontinuation and within 28 days before the first day of study treatment. MET overexpression was defined as moderate (2+) or strong (3+) staining for MET in ≥50% of tumour cells by immunohistochemistry (IHC) using the pharmDx anti-total MET (D1C2) rabbit monoclonal antibody (Dako, Agilent Technologies, Inc., Santa Clara, CA) (Supplementary Table 2). MET status was not required for Phase 1b, but was determined retrospectively in a biopsy sample collected within 28 days before the first day of study treatment. MET amplification status was determined for patients in Phase 1b and 2 using formalin-fixed paraffin-embedded tumour material by fluorescent in situ hybridisation. MET amplification was defined as MET:CEP7 ratio ≥2 or mean gene copy number ≥5.
# as §1, §2
# In both phases, tumour assessments were performed per RECIST v1.1 and modified RECIST[29] v1.1 on Day 1 of every second cycle from Cycle 3 to 13, and Day 1 of every fourth cycle thereafter. Exploratory endpoints included biomarkers of MET pathway activity (including MET amplification status).
# as §3
# Tumour response (best overall response, ORR, DCR) and biological response were summarised, along with corresponding two-sided exact Clopper–Pearson 90% confidence intervals (CIs). Kaplan–Meier estimates of median PFS, TTP, time to symptomatic progression and OS are presented, along with 90% CIs (calculated using the two-sided exact Clopper–Pearson method). All statistical analyses were performed using SAS® Software version 9.4 (Statistical Analysis System, SAS-Institute, Cary, North Carolina, US).
# [4] = tested on: patients with sorafenib pretreated advanced hepatocellular carcinoma (aHCC); experiment: Phase 1b dose escalation ('3 + 3'): DLTs and adverse events; type: in vivo
# Source text: as §4, §1, §2
# In Phase 2, the primary endpoint was progression-free survival (PFS) status after 12 weeks of treatment, as assessed by the investigator per RECIST v1.1. Secondary endpoints included TTP, time to symptomatic progression, objective response rate (ORR), disease control rate (DCR) (all investigator-assessed and per RECIST v1.1), PFS per modified RECIST v1.1 (investigator-assessed), OS and biological response (defined as a decrease in AFP >20%). As sensitivity analyses, PFS and TTP were also evaluated by independent review. Safety was assessed via reporting of adverse events (AEs), graded according to National Cancer Institute Common Terminology and Criteria for Adverse Events v4.0.
# as §3
# Patients who were replaced during Cycle 1 were excluded from the analysis set.
# [5] = Phase 1b, 300 mg cohort (n = 4)
# [6] = Phase 1b, 500 mg cohort (n = 13)
structure (smiles),measurement,setting,value
CNC(=O)c1ccc(-c2cnc3ncc(Cc4ccc5ncccc5c4)n3n2)cc1F [capmatinib],objective response,"aHCC with MET alteration; 3/10 patients, MET IHC 3+, or 2+ with MET gene copy number ≥5",30%
same,objective response,"aHCC with MET alteration; 3/30 patients, MET H-score ≥50%, MET:CEP7 ratio ≥2 or MET gene copy number ≥5",10%
CN1CCC(COc2cnc(-c3cccc(Cn4nc(-c5cccc(C#N)c5)ccc4=O)c3)nc2)CC1 [tepotinib],AUC,"[1]; 300 mg QD, geometric mean (geometric CV 18.2%)",15200 ng·h/mL
same,Cmax,"[1]; 300 mg QD, geometric mean (geometric CV 19.6%)",734 ng/mL
same,Cmax,"[1]; 500 mg QD, geometric mean (geometric CV 44.6%)",677 ng/mL
same,AUC,"[1]; 500 mg QD, geometric mean (geometric CV 50.4%)",12900 ng·h/mL
same,"reduction in exposure, AUC from time 0 to infinity",[2],12%
same,"reduction in exposure, Cmax",[2],29%
same,disease control,[3]; [5],50%
same,objective responses,[3]; [5],50%
same,disease control,[3]; [6],30.8%
same,objective responses,[3]; [6],0%
same,DCR,"[3]; Phase 1b, MET IHC 0",100.0%
same,objective responses,"[3]; Phase 1b, MET IHC 0 (n = 1)",0%
same,DCR,"[3]; Phase 1b, MET IHC 1+",40.0%
same,objective responses,"[3]; Phase 1b, MET IHC 1+ (n = 5)",20%
same,DCR,"[3]; Phase 1b, MET IHC 2+",42.9%
same,objective responses,"[3]; Phase 1b, MET IHC 2+ (n = 7)",14.3%
same,DCR,"[3]; Phase 1b, MET IHC 3+",0%
same,objective responses,"[3]; Phase 1b, MET IHC 3+ (n = 2)",0.0%
same,Median TTP,"[3]; Phase 1b, N = 17",2.1 months
same,median OS,"[3]; Phase 1b, N = 17",7.2 months
same,median PFS,"[3]; Phase 1b, N = 17",1.5 months
same,patients who had died at the time of the analysis,"[3]; Phase 1b, N = 17",82.4%
same,patients with disease progression at the time of the analysis,"[3]; Phase 1b, N = 17",70.6%
same,disease control,"[3]; Phase 1b, overall (N = 17)",35.3%
same,best overall response partial response (PR),"[3]; Phase 1b, two of 17 patients, both 300 mg",11.8%
same,Best overall response CR,[3]; Phase 1b 300 mg/day (n = 4),0 n (%)
same,Best overall response Not evaluable,[3]; Phase 1b 300 mg/day (n = 4),1 (25.0) n (%)
same,Best overall response PD,[3]; Phase 1b 300 mg/day (n = 4),1 (25.0) n (%)
same,Best overall response PR,[3]; Phase 1b 300 mg/day (n = 4),2 (50.0) n (%)
same,Best overall response SD,[3]; Phase 1b 300 mg/day (n = 4),0 n (%)
same,Best overall response CR,[3]; Phase 1b 500 mg/day (n = 13),0 n (%)
same,Best overall response Not evaluable,[3]; Phase 1b 500 mg/day (n = 13),1 (7.7) n (%)
same,Best overall response PD,[3]; Phase 1b 500 mg/day (n = 13),8 (61.5) n (%)
same,Best overall response PR,[3]; Phase 1b 500 mg/day (n = 13),0 n (%)
same,Best overall response SD,[3]; Phase 1b 500 mg/day (n = 13),4 (30.8) n (%)
same,Best overall response CR,[3]; Phase 1b Total (N = 17),0 n (%)
same,Best overall response Not evaluable,[3]; Phase 1b Total (N = 17),2 (11.8) n (%)
same,Best overall response PD,[3]; Phase 1b Total (N = 17),9 (52.9) n (%)
same,Best overall response PR,[3]; Phase 1b Total (N = 17),2 (11.8) n (%)
same,Best overall response SD,[3]; Phase 1b Total (N = 17),4 (23.5) n (%)
same,patients with at least one Grade ≥3 treatment-related AE,[4],23.5%
same,patients with at least one treatment-related AE,[4],82.4%
same,"peripheral oedema, AE of any cause",[4],76.5%
same,dose-limiting toxicities (DLTs) during Cycle 1,[4]; 300 and 500 mg QD cohorts,no DLTs
same,AEs of any cause that led to death,[4]; N = 17,23.5%
same,patients with Grade ≥3 events of any cause,[4]; N = 17,58.8%
same,permanently discontinued treatment due to AEs of any cause,[4]; N = 17,17.6%
same,permanently discontinued treatment due to treatment-related AEs,[4]; N = 17 (peripheral oedema),5.9%
